Reference: patent publication US4024256A, “Method and composition for treating urinary tract infections” (priority 1975, dated 1977)
Values joined by “and” are separate entries in the source; they are usually repeats but may differ in a detail not shown here. Identical values can stand only once. “Also recorded” adds a separate entry of the source.

Legend:
Proteus species [1] = experiment: static study in synthetic urine: anti-bacterial effect, all Proteus species studied; type: cell-based; conditions: general statement
Procedure: (§1) Static studies were conducted to illustrate the synergistic effect achieved in accordance with the present invention through the combined employment of a source of methenamine, i.e., methenamine itself and a source of hydroxamate groups, i.e., acetohydroxamic acid. In order to achieve reproducibility of results with large quantities or urine required for these studies a synthetic urine was formulated based on the proportion of solutes found in the urine from normal human subjects. The composition of such urine was as follows: Brain heart infusion (BHI) broth in a final concentration of 5% was added to support bacterial growth. The pH of the synthetic urine prior to addition of the BHI broth was 5.7 - 5.8. […] In these tests the methenamine was utilized in a final concentration of 0.9 milligrams per milliliter. […] Dally and […], 1969, Analytical BioChem 28:13-21. […] These concentrations which were selected in the static studies were concentrations which would be achievable in the urine of patients with normal renal function. […] At each pH level a set of four tubes was obtained, with these tubes being as follows: 1. Urine alone (control); 2. Urine plus methenamine; 3. Urine plus acetohydroxamic acid; and 4. Urine plus acetohyroxamic acid plus methenamine. […] At varying time intervals aliquots were removed for pH determination and bacterial enumeration by serial tenfold dilution.

Proteus mirabilis [2] = experiment: Proteus mirabilis infected bladder stones (zinc disc) in rats; type: in vivo, male Sprague-Dawley rats
Procedure: This example was carried out to illustrate the effectiveness of administering a source of hydroxamate groups, e.g., acetohydroxamic acid in eliminating the pathogenicity of urinary tract infections and in dissolving or reducing infected bladder stones.
The formation of infected bladder stones was induced in 250 gram male Sprague-Dawley rats, according to the method described in "Experimental Urolithiasis VIII -- Furadantin in Treatment of Experimental Proteus Infection with Stone Formation" C. W. Vermuelen and R. Goetz, Journal of Urology, 72:99, 1954. Rats wer anesthetized with ether and the abdominal wall swabbed with 70% ethyl alcohol. The urinary bladder was entered through a small suprapubic incision. Zinc discs, 6 mm. in diameter, were dipped into a saline suspension containing 10^7 Proteus mirabilis per ml (infective discs) and immediately inserted into the bladder. Discs handled in this fashion carried 10^5 ± 15% organisms. The bladder was closed with a single purse-string suture of 3-0 chromic catgut, and the skin was approximated with metallic clips. All animals were fasted overnight following the surgical procedure and resumed their usual diet the following day.
Rats were housed individually in stainless steel metabolic cages and were fed Purina Rat Chow pellets ad lib. Fluid was given in stainless steel cups as a solution of 5-20% sucrose in water.

bacterial urease = conditions: cited from earlier work
Proteus mirabilis [3] = experiment: dynamic model of the urinary tract (FIGS. 16, 17); type: cell-based
Procedure: This example was carried out using a dynamic model as described in connection with Example 2. […] Proteus species, isolated from the urine of patients with known urinary infection, were maintained in the laboratory by monthly transfer on agar […]. These organisms grew to about 10^9 colony forming units (cfu) per ml after overnight growth at 37° C in brain heart infusion broth (BHI). […] The pH of this synthetic urine was 5.85. […] In this dynamic system urine with or without acetohydroxamic acid was pumped at 48 ml/hr from reservoirs via an auto-analyzer pump into reaction chambers which were incubated in a shaking water bath at 37° C. […] Every six hours the reaction chambers were emptied except for a 5 ml residual, and the sequence was repeated. In these experiments the pH, ammonia concentration and cfu per ml urine were determined for each reaction chamber at the end of each six hour period.

Proteus species [4] = experiment: static study in synthetic urine: inhibition of alkalinization by Proteus species; type: cell-based; conditions: acetohydroxamic acid 1.9 mg/ml
Procedure: as §1

Proteus rettgeri [5] = experiment: dynamic study resembling a Proteus infected human bladder (FIG. 3); type: cell-based; conditions: acetohydroxamic acid 1.9 mg/ml
Procedure: Dynamic studies were conducted to further illustrate the synergistic effect associated with the combined presence of a source of methenamine, i.e., methenamine itself and a source of hyroxamate groups, i.e., acetohydroxamic acid in the urine. […] Utilizing a multicassetts roller pump, urine of a pH of 5.85 was pumped at 40 milliliters per hour from three reservoir flasks into three reaction chambers. […] An aqueous solution of 18 milligrams per milliliter of methenamine at a pH of 7.5 was pumped into reaction chambers 1 and 3 at a rate of two milliliters per hour yielding a final concentration of methenamine of 0.9 milligrams per milliliter. […] The reaction chambers contained gently rotating magnetic stirrers and were kept in a warm bath at 37° C. […] At 4 - 6 hour intervals the volume of urine in each reaction chamber was recorded, the pH of each reaction chamber was determined and serial dilutions were carried out for bacterial enumeration.

Proteus rettgeri [6] = experiment: static study in synthetic urine: viable bacteria, Proteus rettgeri (FIG. 2); type: cell-based; conditions: acetohydroxamic acid 1.9 mg/ml
Procedure: as §1

Proteus = experiment: static-dynamic system, bacteriostasis against Proteus, statements over all experiments; type: cell-based, Proteus mirabilis, Proteus rettgeri, Proteus morgani; conditions: acetohydroxamic acid ≤0.9 mg/ml
Procedure: In this example in vitro investigations were carried out using a static-dynamic system delineating (1) bacteriostatic dose-response relation for methenamine against Proteus, and (2) a synergistic bacteriostatic dose-response relation for methenamine and acetohydroxamic acid against Proteus. […] The tubes were placed in a bacteriological incubator at 37° C. […] Incubation of the tubes at 37° and sequential dilutions were made a 6 hour intervals for 24 hours. The variables for each of eight experiments are detailed in Table 2. Bacterial colony forming units (cfu) and urine pH were determined at the beginning and at the completion of each six hour incubation. The cfu units present after six hours of incubation are graphed in FIGS. 4-15. […] When bacteriostatis was absent, the number of cfu after six hours of incubation was equal to or greater than the number of cfu at the beginning of incubation. A strain of Proteus mirabilis isolated from the urine of patients with urinary tract infections was used in most experiments. Overnight growth in brain heart infusion (BHI) broth regularly produced 10^9 cfu/ml. The overnight culture was centrifuged at 3000 rpm for 20 minutes. The supernatant was discharged, and the bacterial pellet was resuspended in an equal volume of synthetic urine. […]

[7] = characteristics of acetohydroxamic acid (Table 1), pKa; type: physicochemical
Excerpt: These aliphatic hydroxamic acids including formohydroxamic acid, acetohydroxamic acid, propionohydroxamic acid and isobutyhydroxamic acid. […] This source of hydroxamate groups has the following characteristics: […]

[8] = individual animal, average of day individual values, listed as AHA
[9] = individual animal, listed as AHA

CC(=O)NO [acetohydroxamic acid]
concentration of acetohydroxamic acid in urine, mean (150 mg offered daily orally, average 100 mg ingested): 2880 µg/mL | Urine Acetohy. [8]: .3 mg/mL and 1.5 mg/mL and 2.5 mg/mL and 1.3 mg/mL and .9 mg/mL and 1.6 mg/mL and .5 mg/mL | anti-bacterial effect with regard to bacteria of the species Proteus (Proteus species [1]): slight anti-bacterial effect | urine pH (group) (Proteus mirabilis [2]; acetohydroxamic acid treated animals): remained in the normal range; also recorded: in the physiological range | gross evidence of pyelonephritis or renal stone formation (group) (Proteus mirabilis [2]; autopsy): none had gross evidence of pyelonephritis or renal stone formation | kidney histology (group) (Proteus mirabilis [2]; autopsy): nearly all had normal kidneys histologically | Autopsy Gross Kidney (Proteus mirabilis [2]; individual animal): Normal | Autopsy Urine bacteria/ml (Proteus mirabilis [2]; individual animal): > 10^5 bacteria/ml | survival of animal (Proteus mirabilis [2]; individual animal): Expired | Urine pH (Proteus mirabilis [2]; [8]): 7.4 and 6.6 and 6.7 and 7.0 and 6.3 and 6.5 and 6.4 | Autopsy Microscopic Kidney (Proteus mirabilis [2]; [9]): Pyelonephritis; also recorded: Normal | Autopsy Stone Composition (Proteus mirabilis [2]; [9]): Struvite; also recorded: Apatite | Autopsy Stone wt. (Proteus mirabilis [2]; [9]): 12 mg and 4 mg and 21 mg and 11 mg and 1 mg and 19 mg and 3 mg and 7 mg | tissue damage and virulence of the disease (Proteus mirabilis [2]; infected rats): tissue damage and virulence of the disease decreased | P, difference in mean urine pH between control and treated groups (Proteus mirabilis [2]; rat, in vivo): < 0.01 | P, difference in stone formation between control and treated groups (Proteus mirabilis [2]; rat, in vivo): < 0.01 | Proteus mirabilis in urine at autopsy (group) (Proteus mirabilis [2]; seventh day): greater than 10^5 per ml | bladder stone formation (group) (Proteus mirabilis [2]; seventh day): minimal; also recorded: significantly less bladder stone formation than the control rats | urease inhibiting effect (bacterial urease): appear to possess the greatest urease inhibiting effect | effect on pH (Proteus mirabilis [3]; acetohydroxamic acid 1 mg/ml without methenamine): maintained the pH at normal levels | bacterial growth (Proteus mirabilis [3]; acetohydroxamic acid, higher concentration 1.0 mg/ml (FIG. 16)): slightly inhibited bacterial growth | inhibition of alkalinization (Proteus species [4]; synthetic urine, 37°): inhibited alkalinizaton for the first eight hours | time within which effect as urease inhibitor was overcome (Proteus species [4]; bacterial proliferation leading to alkaline pH): ≤ 24 h | alkalinization (Proteus rettgeri [5]): alkalinization of Proteus was inhibited | bacteriostatic effect (Proteus rettgeri [5]): minor bacteriostatic effect | bacteriostatic effect (Proteus rettgeri [6]): slight bacteriostatic effect | number of bacteria (Proteus rettgeri [6]; within eight to eighteen hours): ~10^8 per milliliter | bacteriostatic effect (Proteus): no bacteriostatic effect | pKa [7]: 9.32
